Assay results as given in ChEMBL document CHEMBL1201862, “PubChem BioAssay data set” (2004).
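Test compounds were applied to cells in 96-well plates for 48 hours at 5 doses. GI50 marks 50% less growth.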 Activity calls are given as the source filed them. No stated cut-off is given here; in the data, active = GI50 up to about 1.1 µM and inactive = higher.

Experiments:
Assay in all cases: inhibition of tumour cell growth, NCI panel, 48 h
HCT-116 = test system: HCT-116
HT-29 = test system: HT-29
SN12C = test system: SN12C
CCRF-CEM = test system: CCRF-CEM
KM12 = test system: KM12
A549 = test system: A549
HOP-18 = test system: HOP-18
MOLT-4 = test system: MOLT-4
LOX IMVI = test system: LOX IMVI
UACC-257 = test system: UACC-257
HCC 2998 = test system: HCC 2998
NCI-H522 = test system: NCI-H522
NCI-H460 = test system: NCI-H460
OVCAR-4 = test system: OVCAR-4
Malme-3M = test system: Malme-3M
HCT-15 = test system: HCT-15
U-251 = test system: U-251
SF-295 = test system: SF-295
SK-MEL-28 = test system: SK-MEL-28
SF-539 = test system: SF-539
SNB-78 = test system: SNB-78
UO-31 = test system: UO-31
M14 = test system: M14
SF-268 = test system: SF-268
SNB-75 = test system: SNB-75
SK-OV-3 = test system: SK-OV-3
LXFL 529 = test system: LXFL 529
UACC-62 = test system: UACC-62
NCI-H226 = test system: NCI-H226
DMS-114 = test system: DMS-114
K562 = test system: K562
HL-60 = test system: HL-60
OVCAR-3 = test system: OVCAR-3
XF498 = test system: XF498
M19-MEL = test system: M19-MEL
SK-MEL-5 = test system: SK-MEL-5
ACHN = test system: ACHN
RXF 393 = test system: RXF 393
OVCAR-8 = test system: OVCAR-8
SK-MEL-2 = test system: SK-MEL-2
SNB-19 = test system: SNB-19
DLD-1 = test system: DLD-1
TK-10 = test system: TK-10
786-0 = test system: 786-0
HOP-92 = test system: HOP-92
KM-20L2 = test system: KM-20L2
IGROV-1 = test system: IGROV-1
OVCAR-5 = test system: OVCAR-5
A498 = test system: A498
SW-620 = test system: SW-620
DMS-273 = test system: DMS-273
HOP-62 = test system: HOP-62
EKVX = test system: EKVX
COLO 205 = test system: COLO 205
NCI-H23 = test system: NCI-H23
SR = test system: SR
RPMI-8226 = test system: RPMI-8226
CAKI-1 = test system: CAKI-1

Measured: GI50

O=C(NN1C(=O)C(Cl)C1c1ccccc1Cl)c1ccccc1O (configuration not stated)
> 100 µM: HCT-15
inactive: HCT-116 > 100 µM | HT-29 > 100 µM | SN12C > 100 µM | CCRF-CEM > 100 µM | KM12 > 100 µM | A549 > 100 µM | HOP-18 > 100 µM | MOLT-4 > 100 µM | LOX IMVI > 100 µM | UACC-257 > 100 µM | HCC 2998 > 100 µM | NCI-H522 > 100 µM | NCI-H460 > 100 µM | OVCAR-4 > 100 µM | Malme-3M > 100 µM | U-251 > 100 µM | SF-295 > 100 µM | SK-MEL-28 > 100 µM | SF-539 > 100 µM | SNB-78 > 100 µM | UO-31 > 100 µM | M14 > 100 µM | SF-268 71.1 µM | SNB-75 > 100 µM | SK-OV-3 > 100 µM | LXFL 529 > 100 µM | UACC-62 > 100 µM | NCI-H226 > 100 µM | DMS-114 70 µM | K562 > 100 µM | HL-60 > 100 µM | OVCAR-3 > 100 µM | XF498 32.7 µM | M19-MEL > 100 µM | SK-MEL-5 > 100 µM | ACHN > 100 µM | RXF 393 15.9 µM | OVCAR-8 > 100 µM | SK-MEL-2 > 100 µM | SNB-19 > 100 µM | DLD-1 > 100 µM | TK-10 > 100 µM | 786-0 > 100 µM

CSC(=N)N1N=C2c3ccccc3CC[C@@H]2[C@@H]1c1ccccc1
15.7 µM: HCT-15
inactive: HCT-116 4.8 µM | HT-29 10.3 µM | SN12C 16.4 µM | CCRF-CEM 19.3 µM | HOP-92 5.16 µM | KM12 14.4 µM | KM-20L2 12 µM | A549 17.6 µM | IGROV-1 14.5 µM | HOP-18 18.5 µM | MOLT-4 9.71 µM | LOX IMVI 14.5 µM | UACC-257 18.5 µM | HCC 2998 15 µM | NCI-H522 14.2 µM | OVCAR-5 17.7 µM | NCI-H460 13.2 µM | A498 16.7 µM | OVCAR-4 14.8 µM | SW-620 15.5 µM | DMS-273 15 µM | HOP-62 15.7 µM | Malme-3M 12.8 µM | U-251 17.1 µM | EKVX 17.5 µM | SF-295 14.4 µM | SK-MEL-28 15.6 µM | SF-539 13.9 µM | UO-31 9.64 µM | M14 13.2 µM | SF-268 22 µM | SK-OV-3 18.1 µM | LXFL 529 11.5 µM | COLO 205 13.1 µM | UACC-62 17 µM | NCI-H226 9.73 µM | DMS-114 13.3 µM | K562 6.03 µM | NCI-H23 15.2 µM | HL-60 10.6 µM | OVCAR-3 15.8 µM | XF498 16.7 µM | M19-MEL 15.9 µM | ACHN 18.3 µM | RXF 393 13.9 µM | OVCAR-8 15 µM | SK-MEL-2 14.6 µM | SNB-19 16.4 µM | DLD-1 12.9 µM | SR 10.4 µM | RPMI-8226 12.1 µM | TK-10 17 µM | 786-0 12.9 µM

N#CC(C#N)=C(N)/C(C#N)=C\c1ccnc2ccccc12
active: HCT-116 0.962 µM
inactive: HT-29 24.8 µM | SN12C 18.8 µM | CCRF-CEM 3.21 µM | HOP-92 23 µM | KM12 25.7 µM | A549 > 100 µM | IGROV-1 22.1 µM | HOP-18 > 100 µM | MOLT-4 15.8 µM | UACC-257 24.3 µM | HCC 2998 37 µM | NCI-H522 30 µM | OVCAR-5 > 100 µM | NCI-H460 39.3 µM | OVCAR-4 72.6 µM | SW-620 3.49 µM | DMS-273 17.3 µM | HOP-62 23.9 µM | Malme-3M 24.8 µM | U-251 20 µM | SF-295 28.2 µM | SK-MEL-28 20.2 µM | SF-539 15.1 µM | SNB-78 27.1 µM | UO-31 18.2 µM | M14 23 µM | CAKI-1 23.6 µM | SF-268 18.5 µM | SNB-75 31.4 µM | LXFL 529 17.2 µM | COLO 205 > 100 µM | UACC-62 18.9 µM | DMS-114 16.8 µM | K562 4.24 µM | NCI-H23 19.9 µM | HL-60 2.01 µM | OVCAR-3 31.3 µM | XF498 30.1 µM | M19-MEL 19 µM | SK-MEL-5 14.6 µM | ACHN 40.6 µM | RXF 393 18.6 µM | OVCAR-8 17.3 µM | SNB-19 31.8 µM | DLD-1 5.71 µM | SR 16.4 µM | TK-10 35.2 µM | 786-0 18.9 µM
